From patent publication US8383597B2, “G proteins in tumor growth and angiogenesis” (Cornell Research Foundation, Inc., priority 2006, dated 2013)
“Also recorded” adds a separate entry of the source. d = 2'-deoxy (DNA); r = 2'-OH (RNA)

Legend:
tubulin [1] = experiment: Western blot of tubulin protein level in SVEC4-10 endothelial cells after RNA interference; assay type: cell-based, mouse; settings: SVEC4-10 cells, Western blot (FIG. 9A)
Method: (§1) RNA Interference: RNA interference was performed with Qiagen's 2-For-Silencing siRNA Duplexes. Cells were plated in 6-well plates the day before transfection. 2.5 μg siRNA were diluted in 100 μL buffer EC-R (Qiagen). 7.5 μL RNAiFect transfection reagent (Qiagen) were added to form complexes. After incubation for 15 minutes at room temperature, the complexes were added to the cells. Two days later, the cells were again transfected with the same amount of siRNA. Cells were assayed after three more days' incubation. The sequences for Gα13 siRNA oligonucleotides were r(GUA CGA CUU UGA AAU UAA A)dTdT (SEQ ID NO: 6) for the sense strand and r(UUU AAU UUC AAA GUC GUA C)dTdC (SEQ ID NO: 7) for the antisense strand. The sequences for the second pair of oligonucleotides used in the interference assay (data not shown) were r(GGG UGA GUC UGU AAA GUA U)dTdT (SEQ ID NO: 8) for the sense strand and r(AUA CUU UAC AGA CUC ACC C)dAdG (SEQ ID NO: 9) for the antisense strand. The control siRNA oligonucleotides were supplied by Qiagen.

tubulin [2] = experiment: Western blot of tubulin protein level in MEF cells after RNA interference; assay type: cell-based, mouse; settings: siRNA transfected MEF cells, Western blot (FIG. 3C)
Method: as §1

MEF cells [3] = experiment: Wound healing assay, siRNA-treated MEF cells; assay type: cell-based, mouse; settings: PDGF stimulation (FIG. 3E)
Method: Wound Healing Assay: Wild type and Gα12^−/−Gα13^−/− MEF cells isolated from E8.0 Gα12^−/−Gα13^−/− embryos (Gu et al., Proc Natl Acad Sci USA 99: 9352-9357 (2002)) in Dulbecco's Modified Eagle Medium (DMEM) (Invitrogen) containing 10% FBS were seeded into wells of 24-multiwell plates (Becton-Dickinson) (Shan et al., Proc Natl Acad Sci USA 102: 3772-3776 (2005); Yang and Huang, J Biol Chem 280: 27130-27137 (2005)). After they grew to confluency, wounds were made with sterile pipet tips. Cells were washed with Phosphate Buffered Saline (PBS) and refreshed with medium containing 10% fetal bovine serum (FBS) or 20 ng/mL platelet-derived growth factor (PDGF-BB). After overnight incubation at 37° C., cells were fixed and photographed. MEF cells were transfected with Lipofectamine-2000 (transfection efficiency was 10 to 30%) (Invitrogen).
(§2) RNA Interference: RNA interference was performed with Qiagen's 2-For-Silencing siRNA Duplexes. Cells were plated in 6-well plates the day before transfection. 2.5 μg siRNA were diluted in 100 μL buffer EC-R (Qiagen). 7.5 μL RNAiFect transfection reagent (Qiagen) were added to form complexes. After incubation for 15 minutes at room temperature, the complexes were added to the cells. Two days later, the cells were again transfected with the same amount of siRNA. Cells were assayed after three more days' incubation. […]

Gα12 [4] = experiment: Western blot of Gα12 protein level in SVEC4-10 endothelial cells after RNA interference; assay type: cell-based, mouse; settings: SVEC4-10 cells, Western blot (FIG. 9A)
Method: as §1

mouse Gα13 [5] = experiment: Western blot of Gα13 protein level in MEF cells after RNA interference; assay type: cell-based; settings: wild-type MEF cells, siRNA transfection, Western blot (FIG. 3C)
Method: as §1

Gα12 [6] = experiment: Western blot of Gα12 protein level in MEF cells after RNA interference; assay type: cell-based, mouse; settings: siRNA transfected MEF cells, Western blot (FIG. 3C)
Method: as §1

[7] = system: mouse endothelial SVEC4-10 cells; experiment: Chamber assay of VEGF-induced migration of SVEC4-10 endothelial cells; assay type: cell-based; settings: chamber assay (FIG. 9B)
Method: Chamber Cell Migration Assay: Cell migration was assayed in Boyden chambers [8.0 μm pore size polyethylene terephthalate membrane, FALCON cell culture insert (Becton-Dickinson)] (Shan et al., Proc Natl Acad Sci USA 102: 3772-3776 (2005); Yang and Huang, J Biol Chem 280: 27130-27137 (2005)). Cells were first trypsinized and counted. […] Transwells were incubated for 4-6 hours at 37° C. Cells on the inside of the transwell inserts were removed with a cotton swab, and cells on the underside of the insert were fixed and stained. Photographs of three random fields were taken, and the number of cells counted to determine the average number of cells that had transmigrated.
as §1, with “The sequences for the second pair of oligonucleotides used in the interference assay (data not shown) were r(GGG UGA GUC UGU AAA GUA U)dTdT (SEQ ID NO: 8) for the sense strand and r(AUA CUU UAC AGA CUC ACC C)dAdG (SEQ ID NO: 9) for the antisense strand. The control siRNA oligonucleotides were supplied by Qiagen.” left out

MEF cells [8] = experiment: Chamber cell migration assay, siRNA-treated MEF cells; assay type: cell-based, mouse
Method: Chamber Cell Migration Assay: Cell migration was assayed in Boyden chambers [8.0 μm pore size polyethylene terephthalate membrane, FALCON cell culture insert (Becton-Dickinson)] (Shan et al., Proc Natl Acad Sci USA 102: 3772-3776 (2005); Yang and Huang, J Biol Chem 280: 27130-27137 (2005)). Cells were first trypsinized and counted. Then 5-10×10^4 cells in serum free medium (300 μL) were added to the upper chamber, and 500 μL of appropriate medium with 10% FBS or 20 ng/mL PDGF were added to the lower chamber. Transwells were incubated for 4-6 hours at 37° C. Cells on the inside of the transwell inserts were removed with a cotton swab, and cells on the underside of the insert were fixed and stained. Photographs of three random fields were taken, and the number of cells counted to determine the average number of cells that had transmigrated.
as §2

mouse Gα13 [9] = experiment: Western blot of Gα13 protein level in SVEC4-10 endothelial cells after RNA interference; assay type: cell-based; settings: SVEC4-10 cells, Western blot (FIG. 9A)
Method: as §1

## r(GUA CGA CUU UGA AAU UAA A)dTdT (sense GUACGACUUUGAAAUUAAATT; antisense UUUAAUUUCAAAGUCGUACTC; siRNA; sugars from the 5' end r19 d2, backbone not given here) [Gα13 siRNA, siRNA duplex against mouse Gα13]
Tubulin [1]
  protein level of tubulin: no effect
Tubulin [2]
  protein level of tubulin: not changed
MEF cells [3]
  cell migratory response to PDGF stimulation, wound-healing assay: defective cell migratory response; also recorded: reduced
Gα12 [4]
  protein level of Gα12: no effect
Mouse Gα13 [5]
  level of endogenous mouse Gα13 protein: significantly reduced
Gα12 [6]
  protein level of Gα12: not changed
[7]
  VEGF-induced endothelial cell migration: reduced
MEF cells [8]; PDGF stimulation (FIG. 3D)
  cell migratory response to PDGF stimulation, chamber assay: defective cell migratory response
MEF cells [8]; without PDGF (or other stimuli), data not shown
  migration of cells without PDGF, compared with control RNAi: not significantly different
Mouse Gα13 [9]
  endogenous mouse Gα13 protein level: reduced
